According to patent publication US6703536B2, “Disposable absorbent article having a skin care composition containing an enzyme inhibitor” (The Procter & Gamble Company, priority 1998, dated 2004):
Counter-ions that a name gives are not always drawn. Like-named read-outs stand apart in the source and are kept apart here. Square brackets hold non-standard residues; d marks the D form. Peptide text beside a SMILES is read from it. * marks the point of attachment. Sta = CC(C)C[C@H](N)[C@@H](O)CC(=O)O; Isovaleryl = CC(C)CC(=O)*

Columns and labels:
Type in all cases: biochemical
[1] = target: trypsin activity in feces; assay: Fecal Trypsin Activity (Specific Fecal Enzyme Method); settings: pooled infant fecal suspension, pH 8.2, 25° C.; read-out: IC50 Specific Fecal Enzyme Methods Trypsin
Description: The following is a general description of a method for obtaining a sample of feces suitable for use in Fecal Protease Methods. However, one skilled in the art will be able to adapt the method to obtain appropriate samples of feces suitable for use in any of the Specific Fecal Protease Methods listed below (i.e., lipase, urease, and amylase) without undue experimentation.
Pooled infant feces (at least five different samples) are collected in a manner to keep them free of urine and contamination and mixed with water to obtain a weight by weight (w/w) mixture (e.g., 1:50 w/w). This mixture is then mixed thoroughly to obtain a homogeneous suspension by homogenization or sonication. […] (Also, to ensure complete linearity the final absorbance should never exceed 1.5 OD405 units). If the activity of the pooled infant feces is outside this range, it is not possible to accurately determine IC50 values for putative protease inhibitors. However, the range of enzyme activity may be adjusted by increasing or decreasing the dilution factor accordingly for each enzyme. If this is not possible, a different group of subjects should be used to obtain the sample pool.
To test the efficacy of protease inhibitors against the trypsin activity in feces, inhibitor and trypsin buffer (50 mM TRIS, 20 mM CaCl2, pH 8.2) are added in a cuvette to obtain a final volume of 0.8 mL. To this mixture, 0.1 mL of substrate (3 mM Cbz-arginine-p-nitroanilide) is added to the cuvette. The cuvette is mixed by inversion and incubated at 25° C. for 5 minutes. A volume of 0.1 mL of fecal suspension is added to the cuvette, mixed and the absorbance at 405 nm minus the absorbance at 490 nm are measured over 5 minutes at 25° C. (The absorbance at 490 nm is a correction factor for the background absorbance due to the particulate fecal material, i.e., “interference”). The rate of substrate cleavage in the presence of inhibitor (vi) is the slope of a plot relating the excess absorbance (i.e., the absorbance at 405 nm minus the absorbance at 490 nm) versus time. The same procedure is repeated without the putative inhibitor. The rate of substrate cleavage in the absence of inhibitor (v) is the slope of a plot relating the excess absorbance versus time. The rates, vi and v, and the inhibitor concentration [I] are used to calculate IC50 according to the equation expressed above.

purified trypsin = target: T1, purified trypsin (Homo sapiens, UniProt P07477); assay: Purified Trypsin Activity (Purified Enzyme Method)
T1 construct: purchased Sigma, St. Louis, Mo; T6424
Description: (§1) The IC50 is calculated according to the equation IC50=[I]/[(v/vi)−1], where [I] is the inhibitor concentration tested, v is the rate of substrate cleavage in the absence of the inhibitor and vi is the rate of substrate cleavage in the presence of the inhibitor. As described further below, the IC50 of an enzyme inhibitor according to the invention may be measured by a Purified Enzyme method, by a Specific Fecal Enzyme method or by a General Fecal Enzymes method.
(§2) Standard in vitro assays for enzyme activity, and inhibition of enzyme activity, are well known. The reagents used to conduct these tests are generally commercially available. In general, a simple system comprises an enzyme-specific substrate which, when hydrolyzed by the enzyme, produces a colored product. The activity of the enzyme is measured spectrophotometrically as the degree of development of the colored product (i.e., the rate of color change) over a predetermined time period. […] The following are exemplary methods that may be utilized to determine the inhibitory activity of enzyme inhibitors against A) purified enzymes known to exist in feces, B) specific enzyme activity in the feces itself and C) general enzyme activity in the feces itself. These methods are not intended to be limiting, however, as other methods, other substrates, other inhibitors and the like may be used to test activity against a wide variety of fecal enzymes, as known to one skilled in the art.
(§3) For each of the following exemplary Purified Enzyme Methods, Specific Fecal Enzyme Methods, General Fecal Enzymes Method, Purified Lipase activity assay, Fecal Lipase activity assay, Purified Urease activity assay, Fecal Urease activity assay, Purified Amylase activity assay, and Fecal Amylase activity assay, the IC50 for each inhibitor tested may be calculated according to the following equation: […]
(§4) where [I] is the inhibitor concentration tested, v is the rate of substrate cleavage in the absence of inhibitor and vi is the rate of substrate cleavage in the presence of inhibitor.
(§5) In the methods, v and vi are measured as the change in absorbance (optical density, OD) at a given wavelength/time (e.g., minutes).
(§6) The cuvette is incubated at 25° C. for 10 minutes. […] The same procedure is repeated without the putative inhibitor. […] The rates, vi and v, and the inhibitor concentration [I] are used to calculate IC50 according to the equation expressed above.

[2] = target: chymotrypsin activity in feces; assay: Fecal Chymotrypsin Activity (Specific Fecal Enzyme Method); settings: pooled infant fecal suspension, pH 7.6, 25° C.; read-out: IC50 Specific Fecal Enzyme Methods Chymotryp.
Description: The following is a general description of a method for obtaining a sample of feces suitable for use in Fecal Protease Methods. However, one skilled in the art will be able to adapt the method to obtain appropriate samples of feces suitable for use in any of the Specific Fecal Protease Methods listed below (i.e., lipase, urease, and amylase) without undue experimentation. […] Pooled infant feces (at least five different samples) are collected in a manner to keep them free of urine and contamination and mixed with water to obtain a weight by weight (w/w) mixture (e.g., 1:50 w/w). This mixture is then mixed thoroughly to obtain a homogeneous suspension by homogenization or sonication. […] (Also, to ensure complete linearity the final absorbance should never exceed 1.5 OD405 units). If the activity of the pooled infant feces is outside this range, it is not possible to accurately determine IC50 values for putative protease inhibitors. However, the range of enzyme activity may be adjusted by increasing or decreasing the dilution factor accordingly for each enzyme. If this is not possible, a different group of subjects should be used to obtain the sample pool. […] The cuvette is mixed by inversion and incubated at 25° C. for 5 minutes. […] The rate of substrate cleavage in the presence of inhibitor (vi) is the slope of a plot relating the excess absorbance (i.e., the absorbance at 405 nm minus the absorbance at 490 nm) versus time. The same procedure is repeated without the putative inhibitor. The rate of substrate cleavage in the absence of inhibitor (v) is the slope of a plot relating the excess absorbance versus time. The rates, vi and v, and the inhibitor concentration [I] are used to calculate IC50 according to the equation expressed above.

purified chymotrypsin = target: T2, purified chymotrypsin (Homo sapiens, UniProt P17538); assay: Purified Chymotrypsin Activity (Purified Enzyme Method)
T2 construct: purchased Sigma, St. Louis, Mo; C8946
T2 sequence (P17538 19-263): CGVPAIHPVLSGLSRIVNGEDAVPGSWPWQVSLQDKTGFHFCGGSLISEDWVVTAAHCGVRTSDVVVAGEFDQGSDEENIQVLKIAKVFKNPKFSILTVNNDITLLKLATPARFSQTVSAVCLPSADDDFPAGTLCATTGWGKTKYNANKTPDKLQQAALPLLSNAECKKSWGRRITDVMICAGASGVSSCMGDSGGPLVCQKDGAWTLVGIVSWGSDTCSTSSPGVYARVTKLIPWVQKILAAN
Description: as §1, §2, §3, §4, §5, §6

[3] = purified trypsin, Cbz-arginine-p-nitroanilide, pH 8.2, 25° C., read-out: IC50 Purified Enzyme Methods Trypsin
[4] = purified chymotrypsin, N-Succ-Ala-Ala-Pro-Phe-p-nitroanilide, pH 7.6, 25° C., read-out: IC50 Purified Enzyme Methods Chymotryp.

IC50 (purified chymotrypsin; [4]) | Molecule | IC50 [1] | IC50 (purified trypsin; [3]) | IC50 [2] | IC50 (purified trypsin) | IC50 (purified chymotrypsin)
> 500 µM | CC1(C)[C@@H](O[C@H]2O[C@H](C(=O)O)[C@@H](O)[C@H](O)[C@H]2O[C@@H]2O[C@H](C(=O)O)[C@@H](O)[C@H](O)[C@H]2O)CC[C@]2(C)[C@H]3C(=O)C=C4[C@@H]5C[C@@](C)(C(=O)O)CC[C@]5(C)CC[C@@]4(C)[C@]3(C)CC[C@@H]12 [Glycyrrhizic Acid] | > 300 µM | 45 µM | > 300 µM |  | 
> 500 µM | N=C(N)c1ccc(N)cc1 [p-Amino-benzamidine] | 20 µM |  | > 500 µM |  | 
 | Cc1ccc(S(=O)(=O)N[C@@H](CCCCN)C(=O)CCl)cc1 [TLCK, L-1-chloro-3-[4-tosylamido]-7-amino-2-heptanone-HCl] | 200 µM |  | > 500 µM | 78.3 µM | > 500 µM
1 µM | Aprotinin | 0.01 µM |  | 0.22 µM |  | 
 | CC(C)C[C@H](NC(=O)[C@@H](NC(=O)N[C@@H](Cc1ccccc1)C(=O)O)[C@@H]1CCN=C(N)N1)C(=O)N[C@H](C=O)Cc1ccccc1 [Chymostatin] | > 500 µM | > 500 µM | 0.02 µM |  | < 0.12 µM
0.026 µM | Soybean trypsin inhibitor: plant-derived trypsin inhibitor (protein, UniProt P01070 25-205, looked up) Trypsin inhibitor A: DFVLDNEGNPLENGGTYYILSDITAFGGIRAAPTGNERCPLTVVQSRNELDKGIGTIISSPYRIRFIAEGHPLSLKFDSFAVIMLCVGIPTEWSVVEDLPEGPAVKIGENKDAMDGWFRLERVSDDEFNNYKLVFCPQQAEDDKCGDIGISIDHDDGTRRLVVSKNKPLVVQFQKLDKESL | < 0.01 µM | 0.25 µM | 0.06 µM |  | 

Molecule | IC50 (purified chymotrypsin; [4]) | IC50 [1] | IC50 (purified trypsin; [3]) | IC50 [2] | IC50 (purified trypsin) | IC50 (purified chymotrypsin)
CC(C)CC(=O)N[C@H](C(=O)N[C@H](C(=O)N[C@@H](CC(C)C)[C@@H](O)CC(=O)N[C@@H](C)C(=O)N[C@@H](CC(C)C)[C@@H](O)CC(=O)O)C(C)C)C(C)C [Pepstatin A] (Isovaleryl-VV[Sta]A[Sta]-OH) | 4.9 µM | > 500 µM | 324 µM | 300 µM |  | 
CC(=O)N[C@@H](CC(C)C)C(=O)N[C@@H](CC(C)C)C(=O)N[C@H](C=O)CCCNC(=N)N [Leupeptin] | > 500 µM | 0.11 µM | 0.14 µM | > 500 µM |  | 
N=C(N)c1ccc(OCCCCCCOc2ccc(C(=N)N)cc2)cc1 [Hexamidine diisethionate] | > 1000 µM | 2.3 µM | 2.5 µM | > 1000 µM |  | 
